Results reported in patent US10000471B2, “Pyrazole P38 map kinase inhibitors” (Respivert Limited, priority 2010, dated 2018).

Tests used:
[1] = molecular target: T1, p38 MAPKα isoform (MAPK14) (Homo sapiens, UniProt Q16539); assay: Enzyme inhibition assay (FRET, Z-LYTE), p38 MAPKα via MAPKAP-K2 activation; type: biochemical; details: read-out: Enzyme Inhibition IC50 p38α
T1 construct: purchased Invitrogen
Outline: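 Z-LYTE FRET format, in which protease cleaves only non-phosphorylated peptide, read after 1 h development. Compound was mixed with p38 MAPKα for 2 h at RT, and inhibition was gauged from MAPKAP-K2 activation/phosphorylation rather than directly. Percent inhibition against an uninhibited control was fitted to give IC50.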

[2] = test system: Differentiated U937 cells; assay: Cell viability MTT assay; type: cell-based, human; details: negative = apparent increase in viability; for MTT Assay (Viability) 4 h d-U937, percentage loss of cell viability: 4 hr in 5% FCS; for MTT Assay (Viability) 24 h d-U937, percentage loss of cell viability: 24 h in 10% FCS
Outline: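 Differentiated U937 cells pre-incubated with compound either 4 hr in 5% FCS or 24 h in 10% FCS, then 1 hr MTT. Formazan dissolved in DMSO, absorbance at 550 nm. Percentage viability loss relative to 0.5% DMSO vehicle; apparent increases appear as negative percentages.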

[3] = test system: TNFα release in d-U937 cells; assay: LPS-induced TNFα release in d-U937 cells; type: cell-based, human; details: Homo sapiens, dU937, relative to 10 μg/mL BIRB796, read-out: LPS/TNFα REC50 d-U937
Outline: (§1)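 Sandwich ELISA of TNFα and IL-8 in supernatants after 4 hr 0.1 μg/mL LPS (E. coli O111:B4) challenge of U937 cells differentiated with PMA 100 ng/ml for 48–72 hr, compound added 2 hr beforehand. IL-8: IC50 from inhibition versus vehicle; TNFα: REC50 from inhibition as percentage of 10 μg/mL BIRB796 effect.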

[4] = test system: TNFα release in THP-1 cells; assay: LPS-induced TNFα release in THP-1 cells; type: cell-based, human; details: Homo sapiens
Outline: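 IC50 derived from concentration-response of TNFα inhibition relative to vehicle, with TNFα quantified by sandwich ELISA in supernatants. THP-1 cells were challenged 4 hr with LPS (E. coli, 3 μg/mL).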

[5] = molecular target: T2, p38 MAPKγ (MAPK12) (Homo sapiens, UniProt P53778); assay: Enzyme inhibition assay (FRET, Z-LYTE), p38 MAPKγ; type: biochemical; details: read-out: Enzyme Inhibition IC50 p38γ
T2 construct: purchased Invitrogen
T2 sequence (P53778 1-367): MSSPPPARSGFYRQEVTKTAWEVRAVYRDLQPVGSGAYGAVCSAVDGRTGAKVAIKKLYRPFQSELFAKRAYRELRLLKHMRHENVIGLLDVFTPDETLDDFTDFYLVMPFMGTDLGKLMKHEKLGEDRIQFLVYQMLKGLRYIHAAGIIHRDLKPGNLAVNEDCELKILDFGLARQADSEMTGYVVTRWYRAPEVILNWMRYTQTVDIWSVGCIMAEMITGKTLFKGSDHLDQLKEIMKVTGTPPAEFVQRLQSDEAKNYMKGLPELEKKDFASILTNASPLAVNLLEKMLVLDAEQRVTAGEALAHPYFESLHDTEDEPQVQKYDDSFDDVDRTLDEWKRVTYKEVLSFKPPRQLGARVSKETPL
Outline: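 Z-LYTE FRET readout: after 1 h kinase reaction (ATP 100 μM, peptide 2 μM) following 2 h RT enzyme–compound preincubation in HEPES, protease cleaves only unphosphorylated peptide. Percent inhibition from donor/acceptor ratio relative to control; IC50 fitted from the curve.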

[6] = test system: ICAM-1 induction in BEAS2B cells; assay: Poly I:C-induced ICAM-1 induction in BEAS2B cells; type: cell-based, human; details: Homo sapiens, BEAS-2B, read-out: PolyIC/ICAM1 IC50 BEAS2B
Outline: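 IC50 reflects inhibition of cell-surface ICAM-1 relative to vehicle, read by ELISA (OD450 against 655 nm) and divided by crystal violet OD595 for cell number. Readings were taken 18 hr after transfection of 1 μg/mL poly I:C into BEAS2B cells. Compound was added 2 hr before stimulation.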

[7] = test system: IL-8 release in d-U937 cells; assay: LPS-induced IL-8 release in d-U937 cells; type: cell-based, human; details: Homo sapiens, dU937
Outline: as §1

T1 sequence (Q16539 whole entry, canonical isoform): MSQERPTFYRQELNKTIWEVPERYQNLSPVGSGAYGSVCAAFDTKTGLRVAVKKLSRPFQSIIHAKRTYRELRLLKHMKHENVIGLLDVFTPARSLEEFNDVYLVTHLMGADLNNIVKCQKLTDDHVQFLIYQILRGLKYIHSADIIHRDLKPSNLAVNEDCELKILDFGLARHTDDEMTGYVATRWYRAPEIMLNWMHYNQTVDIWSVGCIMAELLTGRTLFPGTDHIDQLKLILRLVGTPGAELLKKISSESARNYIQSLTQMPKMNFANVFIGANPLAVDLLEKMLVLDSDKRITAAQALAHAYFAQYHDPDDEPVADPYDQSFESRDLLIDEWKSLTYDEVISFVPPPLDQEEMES

Row | Structure (SMILES) | IC50 [1] | MTT Assay (Viability) 4 h d-U937, percentage loss of cell viability [2] | MTT Assay (Viability) 24 h d-U937, percentage loss of cell viability [2] | EC50 [3] | IC50 [4] | IC50 [5] | IC50 [6] | IC50 [7]
1 | COCC(=O)Nc1cc(Oc2ccc(NC(=O)Nc3cc(C(C)(C)C)nn3-c3cccc(CO)c3)c(Cl)c2Cl)ncn1 [Example 92, N-(6-(4-(3-(3-tert-butyl-1-(3-hydroxymethylphenyl)-1H-pyrazol-5-yl)ureido)-2,3-dichlorophenoxy)pyrimidin-4-yl)-2-methoxyacetamide] | 0.0258 µM | −14.4% | 81.0% | 0.0009 µM | 0.0142 µM | 0.165 µM | 0.0019 µM | 0.0099 µM
2 | COCC(=O)Nc1cc(COc2ccc(NC(=O)Nc3cc(C(C)(C)C)nn3-c3ccc(OC)cc3)c(Cl)c2Cl)ccn1 [Example 15, N-(4-((4-(3-(3-tert-Butyl-1-(4-methoxyphenyl)-1H-pyrazol-5-yl)ureido)-2,3-dichlorophenoxy)methyl)pyridin-2-yl)-2-methoxyacetamide] | 0.0157 µM | −12.2% | 12.4% | 0.0838 µM | 0.0199 µM | 0.107 µM | 0.0312 µM | 0.163 µM
3 | COCC(=O)Nc1cc(Oc2ccc(NC(=O)Nc3cc(C(C)(C)C)nn3-c3ccc(C)cc3)c(C(F)(F)F)c2)ccn1 [Example 3, N-(4-(4-(3-(3-tert-Butyl-1-p-tolyl-1H-pyrazol-5-yl)ureido)-3-(trifluoromethyl)phenoxy)pyridin-2-yl)-2-methoxyacetamide] | 0.0051 µM | 3.4% | 22.9% | 0.0011 µM | 0.001 µM | 0.175 µM | 0.0244 µM | 0.0412 µM
4 | COCC(=O)Nc1cc(Oc2ccc(NC(=O)Nc3cc(C(C)(C)C)nn3-c3ccc(C)cc3)c(Cl)c2F)ccn1 [Example 35, N-(4-(4-(3-(3-tert-butyl-1-p-tolyl-1H-pyrazol-5-yl)ureido)-3-chloro-2-fluorophenoxy)pyridin-2-yl)-2-methoxyacetamide] | 0.0247 µM | −0.2% | 73.1% | 0.0005 µM | 0.0006 µM | 0.135 µM | 0.0015 µM | 0.0028 µM
5 | Cc1ccc(-n2nc(C(C)(C)C)cc2NC(=O)Nc2ccc(Oc3ccnc(NC(=O)N4CCCC4)c3)c(Cl)c2Cl)cc1 [Example 72, N-(4-(4-(3-(3-tert-butyl-1-p-tolyl-1H-pyrazol-5-yl)ureido)-2,3-dichlorophenoxy)pyridin-2-yl) pyrrolidine-1-carboxamide] | 0.0413 µM | −13.7% | 26.9% | 0.0019 µM | 0.0006 µM | 0.315 µM | 0.0075 µM | 0.0002 µM
6 | COCC(=O)Nc1cc(Oc2ccc(NC(=O)Nc3cc(C(C)(C)C)nn3-c3ccc(C)cc3)c(Cl)c2Cl)ncn1 [Example 89, N-(6-(4-(3-(3-tert-butyl-1-p-tolyl-1H-pyrazol-5-yl)ureido)-2,3-dichlorophenoxy)pyrimidin-4-yl)-2-methoxyacetamide] | 0.0588 µM | −49.9% | −7.5% | 0.0003 µM | 0.0017 µM | 0.175 µM | 0.0018 µM | 0.0134 µM
7 | COCC(=O)Nc1cc(Oc2ccc(NC(=O)Nc3cc(C(C)(C)C)nn3-c3ccc(C)cc3)c3ncccc23)ccn1 [Example 40, N-(4-(8-(3-(3-tert-butyl-1-p-tolyl-1H-pyrazol-5-yl)ureido)quinolin-5-yloxy)pyridin-2-yl)-2-methoxyacetamide] | 0.0003 µM | −10.7% | 28.4% | 0.0016 µM | 0.0007 µM | 0.189 µM | 0.0166 µM | 0.002 µM
8 | COc1ccc(-n2nc(C(C)(C)C)cc2NC(=O)Nc2ccc(Oc3ccnc(NC(=O)NC4CC4)c3)c(C#N)c2Cl)cc1 [Example 78, 1-(3-tert-butyl-1-(4-methoxyphenyl)-1H-pyrazol-5-yl)-3-(2-chloro-3-cyano-4-(2-(3-cyclopropylureido)pyridin-4-yloxy)phenyl) urea] | 0.0846 µM | 1.0% | 20.9% | 0.0016 µM | 0.0014 µM | 0.0962 µM | 0.0022 µM | 0.0022 µM
9 | CNC(=O)Nc1cc(Oc2ccc(NC(=O)Nc3cc(C(C)(C)C)nn3-c3ccc(CO)cc3)c3ncccc23)ccn1 [Example 61, 1-(4-(8-(3-(3-tert-butyl-1-(4-hydroxymethylphenyl)-1H-pyrazol-5-yl)ureido)quinolin-5-yloxy)pyridin-2-yl)-3-methylurea] | 0.0327 µM | −31.9% | −12.9% | 0.181 µM | 0.0025 µM | 0.094 µM | 0.0114 µM | 0.235 µM
10 | CNC(=O)Nc1cc(Oc2ccc(NC(=O)Nc3cc(C(C)(C)C)nn3-c3ccc(CO)cc3)c3cccnc23)ccn1 [Example 62] | 0.0372 µM | −13.4% | −22.9% | 0.0176 µM | 0.0071 µM | 0.135 µM | 0.0708 µM | 0.0258 µM
11 | CNC(=O)Nc1nccc(Oc2ccc(NC(=O)Nc3cc(C(C)(C)C)nn3-c3ccc(OC)cc3)c(Cl)c2Cl)n1 [Example 98, 1-(3-tert-butyl-1-(4-methoxyphenyl)-1H-pyrazol-5-yl)-3-(2,3-dichloro-4-(2-(3-methylureido)pyrimidin-4-yloxy)phenyl) urea] | 0.0325 µM | −25.9% | −29.3% | 0.0019 µM | 0.0014 µM | 0.101 µM | 0.0041 µM | 0.0027 µM
12 | CSc1ccc(-n2nc(C(C)(C)C)cc2NC(=O)Nc2ccc(Oc3ccnc(NC(=O)N4CCCC4)c3)c(Cl)c2Cl)cc1 [Example 10, N-(4-(4-(3-(3-tert-Butyl-1-(4-(methylthio)phenyl)-1H-pyrazol-5-yl)ureido)-2,3-dichlorophenoxy)pyridin-2-yl)pyrrolidine-1-carboxamide] | 0.0367 µM | −18.7% | 17.0% | 0.0008 µM | 0.0004 µM | 0.184 µM | 0.0017 µM | 0.0012 µM
13 | COCC(=O)Nc1cc(Oc2c(NC(=O)Nc3cc(C(C)(C)C)nn3-c3ccc(C)cc3)ccc(F)c2F)ccn1 [Example 88, N-(4-(6-(3-(3-tert-butyl-1-p-tolyl-1H-pyrazol-5-yl)ureido)-2,3-difluorophenoxy)pyridin-2-yl)-2-methoxyacetamide] | 2.09 µM | 12.3% | 10.0% | 0.027 µM | 0.989 µM | > 17.7 µM | 1.69 µM | > 1.77 µM
